Values after ≈ are worked out from the molar mass of the structure shown.
Columns and labels:
Test in all cases: in vitro antibacterial evaluation, MIC by broth dilution
Format in all cases: cell-based
Escherichia coli = conditions: 18 hours at 35° C.
Method in brief: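 Broth dilution MIC per NCCLS M7-A2 in Mueller-Hinton II medium, inoculum 5×10^5 CFU/mL, antibiotic range 64-0.06 μg/mL. MIC taken as lowest concentration inhibiting growth.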

Staphylococcus sp. = conditions: broth dilution, 18 hours at 35° C.; for MIC Staphylococcus aureus (ATCC 29213): strain ATCC 29213; for MIC Staphylococcus aureus (GC 1131): strain GC 1131; for MIC Staphylococcus aureus (GC 3051): strain GC 3051; for MIC Staphylococcus aureus (GC 3053): strain GC 3053; for MIC Staphylococcus aureus (GC 4541): strain GC 4541; for MIC Staphylococcus aureus (GC 4542): strain GC 4542; for MIC Staphylococcus aureus-SMITH (GC 4543): strain GC 4543; for MIC Staphylococcus aureus (GC 4544): strain GC 4544; for MIC Staphylococcus aureus (GC 4545): strain GC 4545; for MIC Staphylococcus haemolyticus (GC 4546): strain GC 4546; for MIC Coagulase Negative Staphylococcus (GC 4547): strain GC 4547; for MIC Coagulase Negative Staphylococcus (GC 4548): strain GC 4548; for MIC Coagulase Negative Staphylococcus (GC 4549): strain GC 4549; for MIC Coagulase Negative Staphylococcus (GC 4551): strain GC 4551
Method in brief: (§1)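 Broth dilution per NCCLS M7-A2 in Mueller-Hinton II medium, inoculum 5×10^5 CFU/mL, antibiotic range 64-0.06 μg/mL. MIC taken as lowest concentration inhibiting growth; Gram-positive panel includes recent clinical isolates resistant to methicillin, penicillin and/or vancomycin.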

Streptococcus sp. = conditions: broth dilution, 18 hours at 35° C.
Method in brief: as §1

Enterococcus sp. = conditions: broth dilution, 18 hours at 35° C.
Method in brief: as §1

CC(c1ccccc1)C1NC(=O)CNC(=O)C(CO)NC(=O)C(C(O)C2CNC(=N)N2C2OC(CO)C(O)C(O)C2O)NC(=O)C(C(O)C2CNC(=N)N2)NC(=O)C(Cc2ccc3oc(-c4ccc(C(C)(C)C)cc4)nc3c2)NC1=O (stereo not drawn) [Example 32, Cyclo[3-[2-(4-tert-butylphenyl)-1,3-benzoxazol-5-yl]alanyl-3-(2-iminoimidazolidin-4-yl)seryl-3-(3-hexopyranosyl-2-iminoimidazolidin-4-yl)serylserylglycyl-β-methylphenylalanyl]]
MIC Escherichia coli (ATCC 25922) (Escherichia coli; strain ATCC 25922, broth dilution): 16 µg/mL (≈ 14.2 µM)
MIC Escherichia coli (GC 4559) (Escherichia coli; strain GC 4559, broth dilution): 16 µg/mL (≈ 14.2 µM)
MIC Escherichia coli (GC 4560) (Escherichia coli; strain GC 4560, broth dilution): 4 µg/mL (≈ 3.55 µM)
MIC Staphylococcus aureus (ATCC 29213) (Staphylococcus sp.): 4 µg/mL (≈ 3.55 µM)
MIC Staphylococcus aureus (GC 1131) (Staphylococcus sp.): 2 µg/mL (≈ 1.77 µM)
MIC Staphylococcus aureus (GC 3051) (Staphylococcus sp.): 2 µg/mL (≈ 1.77 µM)
MIC Staphylococcus aureus (GC 3053) (Staphylococcus sp.): 4 µg/mL (≈ 3.55 µM)
MIC Staphylococcus aureus (GC 4541) (Staphylococcus sp.): 2 µg/mL (≈ 1.77 µM)
MIC Staphylococcus aureus (GC 4542) (Staphylococcus sp.): 2 µg/mL (≈ 1.77 µM)
MIC Staphylococcus aureus-SMITH (GC 4543) (Staphylococcus sp.): 2 µg/mL (≈ 1.77 µM)
MIC Staphylococcus aureus (GC 4544) (Staphylococcus sp.): 2 µg/mL (≈ 1.77 µM)
MIC Staphylococcus aureus (GC 4545) (Staphylococcus sp.): 2 µg/mL (≈ 1.77 µM)
MIC Staphylococcus haemolyticus (GC 4546) (Staphylococcus sp.): 2 µg/mL (≈ 1.77 µM)
MIC Coagulase Negative Staphylococcus (GC 4547) (Staphylococcus sp.): 2 µg/mL (≈ 1.77 µM)
MIC Coagulase Negative Staphylococcus (GC 4548) (Staphylococcus sp.): 1 µg/mL (≈ 0.886 µM)
MIC Coagulase Negative Staphylococcus (GC 4549) (Staphylococcus sp.): 2 µg/mL (≈ 1.77 µM)
MIC Coagulase Negative Staphylococcus (GC 4551) (Staphylococcus sp.): 4 µg/mL (≈ 3.55 µM)
MIC Coagulase Negative Staphylococcus (GC 6257) (Staphylococcus sp.; strain GC 6257): 2 µg/mL (≈ 1.77 µM)
MIC Streptococcus pneumoniae (ATCC 6301) (Streptococcus sp.; strain ATCC 6301): 16 µg/mL (≈ 14.2 µM)
MIC Streptococcus pneumoniae (GC 1894) (Streptococcus sp.; strain GC 1894): 16 µg/mL (≈ 14.2 µM)
MIC Streptococcus pyogenes (GC 4563) (Streptococcus sp.; strain GC 4563): 8 µg/mL (≈ 7.09 µM)
MIC Streptococcus agalactiae (GC 4564) (Streptococcus sp.; strain GC 4564): 16 µg/mL (≈ 14.2 µM)
MIC Streptococcus pneumoniae (GC 4565) (Streptococcus sp.; strain GC 4565): 16 µg/mL (≈ 14.2 µM)
MIC Enterococcus faecalis (ATCC 29212) (Enterococcus sp.; strain ATCC 29212): 8 µg/mL (≈ 7.09 µM)
MIC Enterococcus faecalis (GC 2242) (Enterococcus sp.; strain GC 2242): 4 µg/mL (≈ 3.55 µM)
MIC Enterococcus faecium (GC 2243) (Enterococcus sp.; strain GC 2243): 4 µg/mL (≈ 3.55 µM)
MIC Enterococcus faecalis (GC 2691) (Enterococcus sp.; strain GC 2691): 8 µg/mL (≈ 7.09 µM)
MIC Enterococcus faecalis (GC 3059) (Enterococcus sp.; strain GC 3059): 8 µg/mL (≈ 7.09 µM)
MIC Enterococcus faecalis (GC 4552) (Enterococcus sp.; strain GC 4552): 8 µg/mL (≈ 7.09 µM)
MIC Enterococcus faecalis (GC 4553) (Enterococcus sp.; strain GC 4553): 8 µg/mL (≈ 7.09 µM)
MIC Enterococcus faecalis (GC 4554) (Enterococcus sp.; strain GC 4554): 4 µg/mL (≈ 3.55 µM)
MIC Enterococcus faecium (GC 4556) (Enterococcus sp.; strain GC 4556): 8 µg/mL (≈ 7.09 µM)
MIC Enterococcus faecium (GC 4557) (Enterococcus sp.; strain GC 4557): 2 µg/mL (≈ 1.77 µM)
MIC Enterococcus avium (GC 4558) (Enterococcus sp.; strain GC 4558): 4 µg/mL (≈ 3.55 µM)
MIC Enterococcus faecalis (GC 6189) (Enterococcus sp.; strain GC 6189): 4 µg/mL (≈ 3.55 µM)

CC(c1ccccc1)C1NC(=O)CNC(=O)C(CO)NC(=O)C(C(O)C2CNC(=N)N2C2OC(CO)C(O)C(O)C2O)NC(=O)C(C(O)C2CNC(=N)N2)NC(=O)C(Cc2ccc(OC3OC(CO)C(OC4OC5COC6(CCCCC6C)OC5C(O)C4O)C(O)C3O)cc2)NC1=O (stereo not drawn) [Example 204]
MIC Escherichia coli (ATCC 25922) (Escherichia coli): 128 µg/mL (≈ 92.1 µM)
MIC Escherichia coli (GC 4559) (Escherichia coli): 128 µg/mL (≈ 92.1 µM)
MIC Escherichia coli (GC 4560) (Escherichia coli): 4 µg/mL (≈ 2.88 µM)
MIC Staphylococcus aureus (GC 1131) (Staphylococcus sp.; inoculum 5×10^5 CFU/mL): 8 µg/mL (≈ 5.76 µM)
MIC Staphylococcus aureus (ATCC 29213) (Staphylococcus sp.): 4 µg/mL (≈ 2.88 µM)
MIC Staphylococcus aureus (GC 1131) (Staphylococcus sp.): 8 µg/mL (≈ 5.76 µM)
MIC Staphylococcus aureus (GC 3051) (Staphylococcus sp.): 4 µg/mL (≈ 2.88 µM)
MIC Staphylococcus aureus (GC 3053) (Staphylococcus sp.): 8 µg/mL (≈ 5.76 µM)
MIC Staphylococcus aureus (GC 4541) (Staphylococcus sp.): 4 µg/mL (≈ 2.88 µM)
MIC Staphylococcus aureus (GC 4542) (Staphylococcus sp.): 4 µg/mL (≈ 2.88 µM)
MIC Staphylococcus aureus-SMITH (GC 4543) (Staphylococcus sp.): 4 µg/mL (≈ 2.88 µM)
MIC Staphylococcus aureus (GC 4544) (Staphylococcus sp.): 8 µg/mL (≈ 5.76 µM)
MIC Staphylococcus aureus (GC 4545) (Staphylococcus sp.): 4 µg/mL (≈ 2.88 µM)
MIC Staphylococcus haemolyticus (GC 4546) (Staphylococcus sp.): 2 µg/mL (≈ 1.44 µM)
MIC Coagulase Negative Staphylococcus (GC 4547) (Staphylococcus sp.): 4 µg/mL (≈ 2.88 µM)
MIC Coagulase Negative Staphylococcus (GC 4548) (Staphylococcus sp.): 4 µg/mL (≈ 2.88 µM)
MIC Coagulase Negative Staphylococcus (GC 4549) (Staphylococcus sp.): 2 µg/mL (≈ 1.44 µM)
MIC Coagulase Negative Staphylococcus (GC 4551) (Staphylococcus sp.): 4 µg/mL (≈ 2.88 µM)
MIC Streptococcus agalactiae (GC 4564) (Streptococcus sp.): 1 µg/mL (≈ 0.72 µM)
MIC Streptococcus pneumoniae (ATCC 6301) (Streptococcus sp.): 0.5 µg/mL (≈ 0.36 µM)
MIC Streptococcus pneumoniae (GC 1894) (Streptococcus sp.): 0.25 µg/mL (≈ 0.18 µM)
MIC Streptococcus pneumoniae (GC 4565) (Streptococcus sp.): 0.5 µg/mL (≈ 0.36 µM)
MIC Streptococcus pyogenes (GC 4563) (Streptococcus sp.): 0.5 µg/mL (≈ 0.36 µM)
MIC Streptococcus pneumoniae (ATCC 6301) (Streptococcus sp.; inoculum 5×10^5 CFU/mL, strain ATCC 6301): 0.5 µg/mL (≈ 0.36 µM)
MIC Streptococcus pneumoniae (GC 1894) (Streptococcus sp.; inoculum 5×10^5 CFU/mL, strain GC 1894): 0.25 µg/mL (≈ 0.18 µM)
MIC Streptococcus pyogenes (GC 4563) (Streptococcus sp.; inoculum 5×10^5 CFU/mL, strain GC 4563): 0.5 µg/mL (≈ 0.36 µM)
MIC Streptococcus agalactiae (GC 4564) (Streptococcus sp.; inoculum 5×10^5 CFU/mL, strain GC 4564): 1 µg/mL (≈ 0.72 µM)
MIC Streptococcus pneumoniae (GC 4565) (Streptococcus sp.; inoculum 5×10^5 CFU/mL, strain GC 4565): 0.5 µg/mL (≈ 0.36 µM)
MIC Enterococcus avium (GC 4558) (Enterococcus sp.): 16 µg/mL (≈ 11.5 µM)
MIC Enterococcus faecalis (ATCC 29212) (Enterococcus sp.): 16 µg/mL (≈ 11.5 µM)
MIC Enterococcus faecalis (GC 2242) (Enterococcus sp.): 16 µg/mL (≈ 11.5 µM)
MIC Enterococcus faecalis (GC 2691) (Enterococcus sp.): 16 µg/mL (≈ 11.5 µM)
MIC Enterococcus faecalis (GC 3059) (Enterococcus sp.): 16 µg/mL (≈ 11.5 µM)
MIC Enterococcus faecalis (GC 4552) (Enterococcus sp.): 16 µg/mL (≈ 11.5 µM)
MIC Enterococcus faecalis (GC 4553) (Enterococcus sp.): 16 µg/mL (≈ 11.5 µM)
MIC Enterococcus faecalis (GC 4554) (Enterococcus sp.): 16 µg/mL (≈ 11.5 µM)
MIC Enterococcus faecalis (GC 6189) (Enterococcus sp.): 16 µg/mL (≈ 11.5 µM)
MIC Enterococcus faecium (GC 2243) (Enterococcus sp.): 16 µg/mL (≈ 11.5 µM)
MIC Enterococcus faecium (GC 4556) (Enterococcus sp.): 16 µg/mL (≈ 11.5 µM)
MIC Enterococcus faecium (GC 4557) (Enterococcus sp.): 8 µg/mL (≈ 5.76 µM)
MIC Enterococcus faecalis (ATCC 29212) (Enterococcus sp.; inoculum 5×10^5 CFU/mL, strain ATCC 29212): 16 µg/mL (≈ 11.5 µM)
MIC Enterococcus faecalis (GC 2242) (Enterococcus sp.; inoculum 5×10^5 CFU/mL, strain GC 2242): 16 µg/mL (≈ 11.5 µM)
MIC Enterococcus faecium (GC 2243) (Enterococcus sp.; inoculum 5×10^5 CFU/mL, strain GC 2243): 16 µg/mL (≈ 11.5 µM)
MIC Enterococcus faecalis (GC 2691) (Enterococcus sp.; inoculum 5×10^5 CFU/mL, strain GC 2691): 16 µg/mL (≈ 11.5 µM)
MIC Enterococcus faecalis (GC 3059) (Enterococcus sp.; inoculum 5×10^5 CFU/mL, strain GC 3059): 16 µg/mL (≈ 11.5 µM)
MIC Enterococcus faecalis (GC 4552) (Enterococcus sp.; inoculum 5×10^5 CFU/mL, strain GC 4552): 16 µg/mL (≈ 11.5 µM)
MIC Enterococcus faecalis (GC 4553) (Enterococcus sp.; inoculum 5×10^5 CFU/mL, strain GC 4553): 16 µg/mL (≈ 11.5 µM)
MIC Enterococcus faecalis (GC 4554) (Enterococcus sp.; inoculum 5×10^5 CFU/mL, strain GC 4554): 16 µg/mL (≈ 11.5 µM)
MIC Enterococcus faecium (GC 4556) (Enterococcus sp.; inoculum 5×10^5 CFU/mL, strain GC 4556): 16 µg/mL (≈ 11.5 µM)
MIC Enterococcus faecium (GC 4557) (Enterococcus sp.; inoculum 5×10^5 CFU/mL, strain GC 4557): 8 µg/mL (≈ 5.76 µM)
MIC Enterococcus avium (GC 4558) (Enterococcus sp.; inoculum 5×10^5 CFU/mL, strain GC 4558): 16 µg/mL (≈ 11.5 µM)
MIC Enterococcus faecalis (GC 6189) (Enterococcus sp.; inoculum 5×10^5 CFU/mL, strain GC 6189): 16 µg/mL (≈ 11.5 µM)
